Assay results taken from US20160299130A1, “Telocinobufagin (TCINO) in the Diagnosis and Pathogenesis of Preeclampsia, Traumatic Brain Injury and Acute Respiratory Distress Syndrome” (priority 2015, published 2016).

Experiments:
[1] = in vitro; cited from earlier work
[2] = system: rodent brain contusion model; test: rodent brain contusion model; type: in vivo; conditions: given 1 hour after the insult
Source text: (§1) MBG is elevated in preeclampsia and traumatic brain injury. It has been shown that the administration of the antagonist of MBG, resibufagenin (RBG) is therapeutically effective. […] RBG antagonizes MBG activity and may be an effective treatment for hypertension, ARDS, traumatic brain injury, and preeclampsia.

[3] = system: animal models of preeclampsia; test: preeclampsia in animal models; type: in vivo
Source text: as §1

Structure (SMILES) | vasoconstrictor action [1] | tissue injury [2] | preeclampsia [3]
C[C@]12CC[C@H](O)C[C@@]1(O)CC[C@@H]1[C@@H]2CC[C@]2(C)[C@@H](c3ccc(=O)oc3)C[C@H]3O[C@]132 [MBG, marinobufagenin] | acts in vitro as a vasoconstrictor |  | 
C[C@]12CC[C@H](O)C[C@H]1CC[C@@H]1[C@@H]2CC[C@]2(C)[C@@H](c3ccc(=O)oc3)C[C@H]3O[C@]132 [RBG, resibufagenin] |  | amelioration of tissue injury | prevents preeclampsia
